The results in this text go back to PMC2994389 (2010).

As usually defined, the IC50 is the midpoint of a concentration-inhibition curve.

This experiment concerns the target T1, PARP-1 (Homo sapiens, UniProt P09874).
T1 construct: gene PARP1
Put plainly: colorimetric PARP assay kit (Trevigen), biotinylated NAD incorporation. The format is biochemical.

SMILES strings stand for the structures.

T1 sequence (P09874 2-1014): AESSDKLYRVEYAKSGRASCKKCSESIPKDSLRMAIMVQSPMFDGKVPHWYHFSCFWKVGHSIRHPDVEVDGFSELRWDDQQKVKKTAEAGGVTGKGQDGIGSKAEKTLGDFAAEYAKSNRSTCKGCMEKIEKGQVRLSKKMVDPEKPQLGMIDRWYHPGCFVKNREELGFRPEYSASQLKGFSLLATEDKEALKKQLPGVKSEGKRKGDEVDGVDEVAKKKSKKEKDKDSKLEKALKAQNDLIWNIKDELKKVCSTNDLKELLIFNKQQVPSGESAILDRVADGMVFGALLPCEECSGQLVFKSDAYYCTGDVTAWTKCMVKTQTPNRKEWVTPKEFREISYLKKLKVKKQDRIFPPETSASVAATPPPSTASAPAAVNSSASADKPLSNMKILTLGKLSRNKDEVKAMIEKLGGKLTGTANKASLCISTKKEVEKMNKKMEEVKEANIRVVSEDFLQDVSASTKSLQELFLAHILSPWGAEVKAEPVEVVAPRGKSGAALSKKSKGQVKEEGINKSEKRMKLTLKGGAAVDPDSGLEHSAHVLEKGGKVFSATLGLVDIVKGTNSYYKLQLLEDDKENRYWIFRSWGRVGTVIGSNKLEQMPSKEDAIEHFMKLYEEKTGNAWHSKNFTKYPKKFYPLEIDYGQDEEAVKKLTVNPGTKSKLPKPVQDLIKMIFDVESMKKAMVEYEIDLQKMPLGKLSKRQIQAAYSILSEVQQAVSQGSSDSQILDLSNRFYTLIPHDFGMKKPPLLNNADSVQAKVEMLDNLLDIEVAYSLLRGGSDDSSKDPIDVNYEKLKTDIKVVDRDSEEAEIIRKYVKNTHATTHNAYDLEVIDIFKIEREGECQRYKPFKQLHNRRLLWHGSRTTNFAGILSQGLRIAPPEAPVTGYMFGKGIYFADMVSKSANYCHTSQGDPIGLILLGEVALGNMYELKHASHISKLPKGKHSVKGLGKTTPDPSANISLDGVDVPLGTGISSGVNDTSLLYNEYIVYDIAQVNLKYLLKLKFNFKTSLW

Turning to `NCCS(=O)(=O)O` [TAU, taurine], half-maximal inhibition (IC50) required 320 µM.
